# Test results published in publication PMC2217055 (The Journal of General Physiology, 1997).
# Key:
# [1] = molecular target: T1, rat olfactory CNG channel subunit 1 (Rattus norvegicus, UniProt Q00195); test: inside-out patch clamp, cGMP dose-response of current; format: cell-based
# T1 sequence (Q00195 1-664): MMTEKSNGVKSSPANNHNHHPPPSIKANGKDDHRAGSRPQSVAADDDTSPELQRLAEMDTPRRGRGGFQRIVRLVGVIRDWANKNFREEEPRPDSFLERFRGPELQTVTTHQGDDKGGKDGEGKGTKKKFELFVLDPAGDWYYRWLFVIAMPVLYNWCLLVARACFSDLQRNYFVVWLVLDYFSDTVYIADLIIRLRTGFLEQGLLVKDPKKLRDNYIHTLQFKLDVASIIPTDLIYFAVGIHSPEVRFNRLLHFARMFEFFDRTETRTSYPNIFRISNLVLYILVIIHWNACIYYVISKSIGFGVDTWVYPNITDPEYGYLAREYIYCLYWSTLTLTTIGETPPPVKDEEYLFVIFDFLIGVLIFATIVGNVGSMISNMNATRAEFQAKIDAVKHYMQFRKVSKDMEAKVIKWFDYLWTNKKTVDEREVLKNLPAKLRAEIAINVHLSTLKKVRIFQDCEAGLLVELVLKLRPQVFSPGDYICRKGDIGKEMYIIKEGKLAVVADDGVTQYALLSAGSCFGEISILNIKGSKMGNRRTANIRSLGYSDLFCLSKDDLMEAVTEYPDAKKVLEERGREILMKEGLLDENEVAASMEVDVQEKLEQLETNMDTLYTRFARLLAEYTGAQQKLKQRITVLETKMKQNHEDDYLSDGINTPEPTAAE
# [2] = molecular target: T1, rat olfactory CNG channel subunit 1; test: inside-out patch clamp, oocytes, Michaelis-Menten fit of block; format: cell-based
EC50 [1] [µM],IC50 [2] [µM],SMILES
2.1 ± 0.12,,Nc1nc2c(ncn2[C@@H]2O[C@@H]3COP(=O)(O)O[C@H]3[C@H]2O)c(=O)[nH]1 [cGMP]
,170 ± 22,CCCCNc1ccc(C(=O)OCCN(C)C)cc1 [tetracaine]
